Reference: patent US20140342065A1 (priority 2012, published 2014)

Tests used:
[1] = system: fruits, vegetables, meat, chicken and salmon; yeast and/or bacteria; test: Food preservation with 500 mg NaHS in closed container at room temperature (FIG. 10)
Procedure: Representative samples of foods shown include fruits, vegetables, meat, chicken and salmon. […] Foods and fruits were stored in closed containers. The containers were made of aluminum with a plastic lid that snugly fitted onto the container rim. […] Control group (Control) of foods and fruits were stored within the containers. The experimental group (Exp) of foods and fruits were placed in the same type of containers and 500 mg of NaHS was placed in a glass cup which was placed in one corner of the container of the Exp group. The containers were not sealed. Using a H2S gas detector capable of detecting 1 to 500 ppm of H2S, no H2S was detected outside the containers. The amount of gas within the Exp containers varied from 5-40 ppm during the course of exposure. […] Experiments were carried out at room temperature for the durations shown. […] There is small change in color, consistency, and of the same food group and there is no evidence of growth of yeast in the NaHS treated group. Strawberry 80. […] The fruit also lost its consistency and is discolored. […] Raspberry 82. Growth of yeast is seen by day 4 and is pronounced on day 6 (arrow 83) in the control group. The fruit also lost its consistency and is discolored. […] Blackberry 84. Growth of yeast is seen by day 4 which is pronounced by day 6 (arrow 85) in the control group. The fruit also lost its consistency and is discolored. […] Banana 86. Growth of yeast is seen by day 8 (arrow 87) in the control group. The fruit also lost its consistency and is discolored. […] Sprout 88. Growth of yeast and bacteria is seen by day 4 (arrow 89) in the control group. Sprout also lost its consistency and is discolored. […] Leek 90. The vegetable is discolored in the control group by day 3. […] Avocado 91. Avocado was either homogenized (top two rows) or cut into small 1×1 cm pieces (bottom two rows) and stored in the containers. […] Mushroom 92. Mushroom is discolored in the control group. […] Cantaloupe 93. Growth of yeast is seen by day 3 and is severe on day 4 (arrows 94) in the control group. The fruit also lost its consistency and is discolored. […] Red meat 95 (top), Chicken 96 (middle) and Salmon 97 (Bottom). The control container developed a foul smell on day 3 which was pronounced on day 4. Larvae developed on day 3 in the control group and flies were found on day 4 in the control group. […] Agar plate cultures, 98. Samples from each fruit were diluted in phosphate buffered saline, pH 7.4. From each sample, 20 microliters was streaked on agar plates and plates were maintained either at room temperature or at 37° C. Samples from control group yielded bacteria or yeast only from control group. To directly test growth of these bacteria and yeast in presence of NaHS, samples of bacteria and yeast were streaked on agar plates and then stored without or with NaHS. 50 mg of NaHS was placed in an aluminum chamber and these were inserted on both sides of the Exp Petri dishes. Petri dishes were placed at room temperature or at 37° C. Colonies of bacteria and yeast were evident in the control group on day 1 and coalesced by day 3 as shown in the representative cultures 98. […] No growth was found for up to 2 months following initiation of cultures.

[2] = system: freshly cut chips of cantaloupe; test: NaHS solution fumigation of freshly cut chips of cantaloupe
Procedure: (§1) Aqueous NaHS solutions (0.25-3.5 mmol/L) could release H2S gas (10^−12˜10^−10 mol/L). H2S rapidly, reached to the highest levels within several minutes and maintained a constant concentration. […] The NaHS solution was renewed every 48 or 72 hours. The NaHS solution was placed in a sealed container separated by a partition board with pores on it. The fresh cut vegetables including Broccoli, Lettuce, Lotus Root, Yam, Pumpkin, Sweet Potato, Potato, etc, and the fresh cut fruits Apple, Pear, Kiwi Fruit, Tomato, Hami Melon, and Peach were placed above the board, while the NaHS solution was placed under the board. Therefore, the fresh cut vegetables and fruits were fumigated with H2S gas released from NaHS in the solution.
The control freshly cut chips of cantaloupe that were treated with water (0.0 mmol/L NaHS) lost their color and became brown, while the freshness of freshly cut chips of cantaloupe treated with 0.05 mmol/L-1.5 mmol/L NaHS solution was prolonged by 8-12 hours.

[3] = system: freshly cut broccoli; test: NaHS solution fumigation of freshly cut broccoli
Procedure: as §1
The controls of fresh cut broccoli that were treated with water (0.0 mmol/L NaHS) solution lost their edibility on day 3, while the shelf life of freshly cut broccoli treated with 0.25 mmol/L-1.75 mmol/L NaHS solution was prolonged by 2-3 days. […] The control of freshly cut broccoli treated with 0.0 mmol/L NaHS solution underwent rot process (due to physiological senescence and microbe infection) at 4 days, and the moldy rate reached 100%. In contrast, the treatment with 1.5 mmol/L H2S donor, NaHS, inhibited the infection by micro-organisms, and no infection appeared until day 9.

[4] = system: Mollusks, bees, grasshopper, drosophila, butterflies, and flies; details: in vivo
Text: First, it can be used in a closed space for the growth of crop and to protect the crop by its insecticidal, fungicidal, rodenticidal, pediculicidal, and biocidal actions.

[5] = system: freshly cut tomatoes; test: NaHS solution fumigation of freshly cut tomatoes at breaker stage
Procedure: as §1
The control freshly cut tomatoes that were treated with water (0.0 mmol/L NaHS) gradually turned red, and reached 100% maturation on day 5, while the maturation time of freshly cut tomatoes treated with 0.5 mmol/L-3.5 mmol/L NaHS solution was prolonged by 4-5 days.

**Q.** What does the source list for `S` [NaHS, sodium hydrosulfide]?
**A.** food spoilage and growth of mold and/or bacteria ([1]; 500 mg NaHS, H2S 5-40 ppm in container, room temperature): prevents food spoilage and growth of mold and/or bacteria; discoloration ([1]; Avocado homogenized or cut pieces, day 3): maintained nearly the same color as that on day 1; yeast growth, loss of consistency, discoloration ([1]; Banana, day 8): These changes are not seen in the Exp group; yeast growth, loss of consistency, discoloration ([1]; Blackberry, day 6): These changes are not seen in the Exp group; yeast growth, loss of consistency, discoloration ([1]; Cantaloupe, day 4): These changes are not seen in the Exp group; discoloration ([1]; Leek, day 3): These changes are not seen in the Exp group; discoloration ([1]; Mushroom): These changes are less severe in the Exp group; yeast growth, loss of consistency, discoloration ([1]; Raspberry, day 6): These changes are not seen in the Exp group; discoloration, foul smell, larvae and flies ([1]; Red meat, Chicken and Salmon, day 4): Meat discolored in the Exp group on day 4 but there was no evidence of foul smell or flies; growth of yeast and bacteria, loss of consistency, discoloration ([1]; Sprout, day 4): These changes are not seen in the Exp group; yeast growth, loss of consistency, discoloration ([1]; Strawberry, day 4): These changes are not seen in the Exp group; freshness prolonged by ([2]; 0.05 mmol/L-1.5 mmol/L NaHS): 8 to 12 h; freshness prolonged by ([2]; 0.9 mmol/L-1.0 mmol/L NaHS (best)): 12 h; shelf life prolonged by ([3]; 0.25 mmol/L-1.75 mmol/L NaHS, control lost edibility on day 3): 2 to 3 days; shelf life prolonged by ([3]; 1.5 mmol/L NaHS (most optimal)): 3 days; day until which no infection by micro-organisms appeared ([3]; 1.5 mmol/L NaHS, control moldy rate 100% at 4 days): 9 days; death of pests [4]: die within seconds; maturation time prolonged by ([5]; 0.5 mmol/L-3.5 mmol/L NaHS, control 100% maturation on day 5): 4 to 5 days; senescence time prolonged by ([5]; 1.5 mmol/L-2.0 mmol/L NaHS (best)): 5 days
